Measured values: patent US9296758B2, “2-quinolinyl-acetic acid derivatives as HIV antiviral compounds” (GILEAD SCIENCES, INC., priority 2010, dated 2016)

Tested on: HIV-IIIb
Test: Test A: Antiviral Assays in MT4 Cells
Type: cell-based
Settings: MT-4 cells infected with HIV-IIIb (0.004 m.o.i.), 5 days of incubation, CellTiter-Glo chemiluminescence readout
Procedure, shortened: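 MT-4 cells pre-infected with HIV-IIIb (0.004 m.o.i.) or mock-infected, 2000 cells per well, were exposed to 10 three-fold serial compound dilutions in quadruplicate in RPMI 1640 with 10% FBS. After 5 days at 37° C, cell viability read by CellTiter-Glo chemiluminescence.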

[1] = Human immunodeficiency virus 1, IIIB, MT4, 120 h

CNCc1ccc2c(-c3ccc(Cl)cc3)c([C@H](OC(C)(C)C)C(=O)O)c(C)cc2n1 [Compound 10, (S)-2-tert-Butoxy-2-(5-(4-chlorophenyl)-7-methyl-2-((methylamino)methyl)quinolin-6-yl)acetic acid]
EC50 [1]: 897 nM

Cc1cc2[nH]c(=O)ccc2c(-c2ccc(Cl)cc2)c1[C@H](OC(C)(C)C)C(=O)O [Compound 8L, (S)-2-tert-butoxy-2-(5-(4-chlorophenyl)-7-methyl-2-oxo-1,2-dihydroquinolin-6-yl)acetic acid]
EC50 [1]: 559 nM

Cc1cccc(C)c1-c1ccc2c(-c3ccc4c5c(ccnc35)CCO4)c([C@H](OC(C)(C)C)C(=O)O)c(C)cc2n1 [Compound 54, (S)-2-tert-Butoxy-2-((R)-5-(2,3-dihydropyrano[4,3,2-de]quinolin-7-yl)-2-(2,6-dimethylphenyl)-7-methylquinolin-6-yl)acetic acid]
EC50 [1]: 87 nM

Cc1cc2nc(CN(C)c3ccccc3)ccc2c(-c2ccc(Cl)cc2)c1[C@H](OC(C)(C)C)C(=O)O [Compound 14, (S)-2-tert-Butoxy-2-(5-(4-chlorophenyl)-7-methyl-2-((methyl(phenyl)amino)methyl)quinolin-6-yl)acetic acid]
EC50 [1]: 983 nM

Cc1cc2nc(C3CCCC3)ccc2c(-c2ccc3c4c(ccnc24)CCO3)c1[C@H](OC(C)(C)C)C(=O)O (atropisomer, axis not shown) [Compound 51, (S)-2-tert-Butoxy-2-((R)-2-cyclopentyl-5-(2,3-dihydropyrano[4,3,2-de]quinolin-7-yl)-7-methylquinolin-6-yl)acetic acid]
EC50 [1]: 30 nM

Cc1cc2nc(C#Cc3ccccc3)ccc2c(-c2ccc3c4c(ccnc24)CCO3)c1[C@H](OC(C)(C)C)C(=O)O (atropisomer, axis not shown) [Compound 40, (S)-2-tert-butoxy-2-((R)-5-(2,3-dihydropyrano[4,3,2-de]quinolin-7-yl)-7-methyl-2-(phenylethynyl)quinolin-6-yl)acetic acid]
EC50 [1]: 51 nM

Cc1cc2nc(C#CC3CC3)ccc2c(-c2ccc3c4c(ccnc24)CCO3)c1[C@H](OC(C)(C)C)C(=O)O (atropisomer, axis not shown) [Compound 42, (S)-2-tert-butoxy-2-((R)-2-(cyclopropylethynyl)-5-(2,3-dihydropyrano[4,3,2-de]quinolin-7-yl)-7-methylquinolin-6-yl)acetic acid]
EC50 [1]: 46 nM

Cc1cc2nc(N(C)C)ccc2c(-c2ccc(Cl)cc2)c1[C@H](OC(C)(C)C)C(=O)O [Compound 32, (S)-2-tert-Butoxy-2-(5-(4-chlorophenyl)-2-(dimethylamino)-7-methylquinolin-6-yl)acetic acid]
EC50 [1]: 108 nM

Cc1cc2nc(CCc3ccccc3)ccc2c(-c2ccc(Cl)cc2)c1[C@H](OC(C)(C)C)C(=O)O [Compound 37B, (S)-2-tert-butoxy-2-(5-(4-chlorophenyl)-7-methyl-2-phenethylquinolin-6-yl)acetic acid]
EC50 [1]: 46 nM

COc1ccc2c(-c3ccc(Cl)cc3)c([C@H](OC(C)(C)C)C(=O)O)c(C)cc2n1 [Compound 66, (S)-2-tert-butoxy-2-(5-(4-chlorophenyl)-2-methoxy-7-methylquinolin-6-yl)acetic acid]
EC50 [1]: 297 nM

Cc1cc2nc(NCCN3CCOCC3)ccc2c(-c2ccc(Cl)cc2)c1[C@H](OC(C)(C)C)C(=O)O [Compound 34, (S)-2-tert-Butoxy-2-(5-(4-chlorophenyl)-7-methyl-2-(2-morpholinoethylamino)quinolin-6-yl)acetic acid]
EC50 [1]: 266 nM

Cc1cc2nc(-c3cccs3)ccc2c(-c2ccc3c4c(ccnc24)CCO3)c1[C@H](OC(C)(C)C)C(=O)O [Compound 69, (S)-2-tert-butoxy-2-((R)-5-(2,3-dihydropyrano[4,3,2-de]quinolin-7-yl)-7-methyl-2-(thiophen-2-yl)quinolin-6-yl)acetic acid]
EC50: 82 nM

Cc1cc2nc(CN(C)C)ccc2c(C2=CCCCC2)c1[C@H](OC(C)(C)C)C(=O)O [Compound 25, (S)-2-tert-butoxy-2-(5-cyclohexenyl-2-((dimethylamino)methyl)-7-methylquinolin-6-yl)acetic acid]
EC50 [1]: 346 nM

Cc1cc2nc(C3CCC3)ccc2c(-c2ccc3c4c(ccnc24)CCO3)c1[C@H](OC(C)(C)C)C(=O)O (atropisomer, axis not shown) [Compound 47, (S)-2-tert-butoxy-2-((R)-2-cyclobutyl-5-(2,3-dihydropyrano[4,3,2-de]quinolin-7-yl)-7-methylquinolin-6-yl)acetic acid]
EC50 [1]: 14 nM

COCCOCCCNc1ccc2c(-c3ccc(Cl)cc3)c([C@H](OC(C)(C)C)C(=O)O)c(C)cc2n1 [Compound 35, (S)-2-tert-butoxy-2-(5-(4-chlorophenyl)-2-(3-(2-methoxyethoxy)propylamino)-7-methylquinolin-6-yl)acetic acid]
EC50 [1]: 157 nM

Cc1cc2nc(Cc3ccccc3)ccc2c(-c2ccc3c4c(ccnc24)CCO3)c1[C@H](OC(C)(C)C)C(=O)O (atropisomer, axis not shown) [Compound 53, (S)-2-((R)-2-Benzyl-5-(2,3-dihydropyrano[4,3,2-de]quinolin-7-yl)-7-methylquinolin-6-yl)-2-tert-butoxyacetic acid]
EC50 [1]: 360 nM

Cc1cc2nc(-c3cncn3C)ccc2c(-c2ccc(Cl)cc2)c1[C@H](OC(C)(C)C)C(=O)O [Compound 82, (S)-2-tert-Butoxy-2-(5-(4-chlorophenyl)-7-methyl-2-(1-methyl-1H-imidazol-5-yl)quinolin-6-yl)acetic acid]
EC50 [1]: 171 nM

Cc1cc2nc(-c3cn(C)cn3)ccc2c(-c2ccc(Cl)cc2)c1[C@H](OC(C)(C)C)C(=O)O [Compound 86, (S)-2-tert-butoxy-2-(5-(4-chlorophenyl)-7-methyl-2-(1-methyl-1H-imidazol-4-yl)quinolin-6-yl)acetic acid]
EC50 [1]: 78 nM

Cc1cc2nc(-c3cn[nH]c3)ccc2c(-c2ccc(Cl)cc2)c1[C@H](OC(C)(C)C)C(=O)O [Compound 77, (S)-2-tert-butoxy-2-(5-(4-chlorophenyl)-7-methyl-2-(1H-pyrazol-4-yl)quinolin-6-yl)acetic acid]
EC50 [1]: 135 nM

Cc1cc2nc(-c3cn[nH]c3)ccc2c(-c2ccc3c4c(ccnc24)CCO3)c1[C@H](OC(C)(C)C)C(=O)O (atropisomer, axis not shown) [Compound 78, (S)-2-tert-Butoxy-2-((R)-5-(2,3-dihydropyrano[4,3,2-de]quinolin-7-yl)-7-methyl-2-(1H-pyrazol-4-yl)quinolin-6-yl)acetic acid]
EC50 [1]: 163 nM

Cc1cc2nc(C(=O)O)ccc2c(-c2ccc(Cl)cc2)c1[C@H](OC(C)(C)C)C(=O)O [Compound 24, (S)-6-(tert-Butoxy(carboxy)methyl)-5-(4-chlorophenyl)-7-methylquinoline-2-carboxylic acid]
EC50 [1]: 29800 nM

Cc1cc2c(ccc(=O)n2CCNC(=O)OCC2c3ccccc3-c3ccccc32)c(-c2ccc(Cl)cc2)c1[C@H](OC(C)(C)C)C(=O)O [Compound 101, (S)-2-(1-(2-(((9H-Fluoren-9-yl)methoxy)carbonylamino)ethyl)-5-(4-chlorophenyl)-7-methyl-2-oxo-1,2-dihydroquinolin-6-yl)-2-tert-butoxyacetic acid]
EC50 [1]: 367 nM

Cc1cc2c(ccc(C)[n+]2[O-])c(-c2ccc3c4c(ccnc24)CCO3)c1[C@H](OC(C)(C)C)C(=O)O [Compound 22, (R)-6-((S)-tert-butoxy(carboxy)methyl)-5-(2,3-dihydropyrano[4,3,2-de]quinolin-7-yl)-2,7-dimethylquinoline 1-oxide]
EC50 [1]: 1080 nM

Cc1cc2nc(NCc3ccncc3)ccc2c(-c2ccc(Cl)cc2)c1[C@H](OC(C)(C)C)C(=O)O [Compound 33, (S)-2-tert-Butoxy-2-(5-(4-chlorophenyl)-7-methyl-2-(pyridin-4-ylmethylamino)quinolin-6-yl)acetic acid]
EC50 [1]: 95 nM

CCc1ccc2c(-c3ccc(Cl)cc3)c([C@H](OC(C)(C)C)C(=O)O)c(C)cc2n1 [Compound 26, (S)-2-tert-butoxy-2-(5-(4-chlorophenyl)-2-ethyl-7-methylquinolin-6-yl)acetic acid]
EC50 [1]: 45 nM

Cc1cc2nc(-c3ccc(Cl)cc3)ccc2c(-c2ccc(Cl)cc2)c1[C@H](OC(C)(C)C)C(=O)O [Compound 27, (S)-2-(2,5-bis(4-chlorophenyl)-7-methylquinolin-6-yl)-2-tert-butoxyacetic acid]
EC50 [1]: 23 nM

CCN(C)c1ccc2c(-c3ccc4c5c(ccnc35)CCO4)c([C@H](OC(C)(C)C)C(=O)O)c(C)cc2n1 [Compound 93, (S)-2-tert-Butoxy-2-((R)-5-(2,3-dihydropyrano[4,3,2-de]quinolin-7-yl)-2-(ethyl(methyl)amino)-7-methylquinolin-6-yl)acetic acid]
EC50 [1]: 94 nM
